Source: US7291641B2, “Derivatives of heterocycles with 5 members, their preparation and their use as medicaments” (Societe de Conseils de Recherches et d'Applications …, priority 1999, dated 2007)
Counter-ions that a name gives are not always drawn.

Row | Compound | melting point
1 | CCCCC(NC(=O)OC(C)(C)C)c1nc(-c2ccc(-c3ccccc3)cc2)c[nH]1 (racemic) [Example 59, (R,S)-4-(2-{1-[(tert-butoxycarbonyl)amino]pentyl}-1H-imidazol-4-yl)-1,1′-biphenyl] | 172 to 176 °C
2 | CCCCC(NCc1ccccc1)c1nc(-c2ccc(-c3ccccc3)cc2)c[nH]1 (racemic) [Example 60, (R,S)—N-benzyl-1-(4-[1,1′-biphenyl]4-yl-1H-imidazol-2-yl)-1-pentanamine] | 201 to 203 °C
3 | CCCCCCNC(CCCCCC)c1nc(-c2ccccc2)c[nH]1 (racemic) [Example 64, (R,S)-N-hexyl-1-(4-phenyl-1H-imidazol-2-yl)-1-heptanamine] | 140 to 142 °C
4 | CCCCCCC(NCCCCC)c1nc(-c2ccccc2)c[nH]1 (racemic) [Example 75, (R,S)-N-pentyl-1-(4-phenyl-1H-imidazol-2-yl)-1-heptanamine] | 118 to 120 °C
5 | CCCCCCC(NC1CCCCC1)c1nc(-c2ccccc2)c[nH]1 (racemic) [Example 76, (R,S)-N-[1-(4-phenyl-1H-imidazol-2-yl)heptyl]cyclohexanamine] | 68 to 70 °C
6 | CCCCCCC(NCc1ccccc1)c1nc(-c2ccc(Cl)c(Cl)c2)c[nH]1 (racemic) [Example 77, (R,S)-N-benzyl-1-[4-(3,4-dichlorophenyl)-1H-imidazol-2-yl]-1-heptanamine] | 192 to 194 °C
7 | Fc1ccc2c(CC(NCc3ccccc3)c3nc(-c4ccccc4)c[nH]3)c[nH]c2c1 (racemic) [Example 105, (R,S)-N-benzyl-2-(6-fluoro-1H-indol-3-yl)-1-(4-phenyl-1H-imidazol-2-yl)ethanamine] | 98 to 100 °C
8 | c1ccc(CNC(c2ccccc2)c2nc(-c3ccccc3)c[nH]2)cc1 (racemic) [Example 133, (R,S)-N-benzyl(phenyl)(4-phenyl-1H-imidazol-2-yl)methanamine] | 144 to 146 °C
9 | Fc1ccc(-c2c[nH]c(C(CCCC(F)(F)F)NC3CCCCC3)n2)cc1 (racemic) [Example 136, (R,S)-N-{5,5,5-trifluoro-1-[4-(4-fluorophenyl)-1H-imidazol-2-yl]pentyl}cyclohexanamine] | 220 °C
10 | CCCCCCC(NCc1ccccc1)c1nc(-c2ccccc2)c[nH]1 (racemic) [Example 145, (R,S)-N-benzyl-1-(4-phenyl-1H-imidazol-2-yl)-1-heptanamine] | 160 to 162 °C
11 | CCCCC(NC(=O)OC(C)(C)C)c1nc(-c2ccccc2)c[nH]1 (racemic) [Example 174, tert-butyl (R,S)-1-(4-phenyl-1H-imidazol-2-yl)pentylcarbamate] | 126 °C
12 | CCCCCCC(NC(=O)OC(C)(C)C)c1nc(-c2ccccc2OC)c[nH]1 (racemic) [Example 183, tert-butyl (R,S)-1-[4-(2-methoxyphenyl)-1H-imidazol-2-yl]heptylcarbamate] | 64 to 65 °C
13 | CCCCC(NCc1ccccc1)c1nc(-c2ccccc2)c[nH]1 (racemic) [Example 186, (R,S)-N-benzyl-1-(4-phenyl-1H-imidazol-2-yl)-1-pentanamine] | 200 to 202 °C
14 | CCCCCCC(NC(=O)OC(C)(C)C)c1nc(-c2ccc(-c3ccccc3)cc2)c[nH]1 (racemic) [Example 192, (R,S)-4-(2-{1-[(tert-butoxycarbonyl)amino]heptyl}-1H-imidazol-4-yl)-1,1′-biphenyl] | 142 to 144 °C
15 | CCCCCCC(NCc1ccccc1)c1nc(-c2ccc(-c3ccccc3)cc2)c[nH]1 (racemic) [Example 195, (R,S)-N-benzyl-1-(4-[1,1′-biphenyl]-4-yl-1H-imidazol-2-yl)-1-heptanamine] | 100 to 102 °C
16 | CCCCCCC(NCc1ccccc1)c1nc(-c2ccccc2OC)c[nH]1 (racemic) [Example 201, (R,S)-N-benzyl-1-[4-(2-methoxyphenyl)-1H-imidazol-2-yl]-1-heptanamine] | 155 to 157 °C
17 | C#CCN(C)Cc1nc(-c2cc(C(C)(C)C)c(O)c(C(C)(C)C)c2)cs1 [Example 2, 2,6-di(tert-butyl)-4-(2-{[methyl(2-propynyl)amino]methyl}-1,3-thiazol-4-yl)phenol] | 210 to 215 °C

The next lines start with the values.

Row | melting point | Compound
18 | 192 °C | CCCCCCC(N)c1nc(-c2ccc(N(CC)CC)cc2)c[nH]1 (racemic) (as salt: hydrochloride) [Example 218, (R,S)-4-[2-(1-aminoheptyl)-1H-imidazol-4-yl]-N,N-diethylaniline]
19 | 148 to 150 °C | CCCCCCC(N)c1nc(-c2ccc(F)cc2)c[nH]1 (racemic) (as salt: hydrochloride) [Example 220, (R,S)-1-[4-(4-fluorophenyl)-1H-imidazol-2-yl]-1-heptanamine]
20 | 138 to 140 °C | CCCCCCC(N)c1nc(-c2ccccc2Cl)c[nH]1 (racemic) (as salt: hydrochloride) [Example 221, (R,S)-1-[4-(2-chlorophenyl)-1H-imidazol-2-yl]-1-heptanamine]
21 | 170 °C | CCCCCCC(NCc1ccccc1)c1nc(-c2ccc(N(CC)CC)cc2)c[nH]1 (racemic) (as salt: hydrochloride) [Example 230, (R,S)-N-benzyl-N-(1-{4-[4-(diethylamino)phenyl]-1H-imidazol-2-yl}heptyl)amine]
22 | 148 to 150 °C | CCCCCCC(N)c1nc(-c2ccc(Cl)c(Cl)c2)c[nH]1 (racemic) (as salt: hydrochloride) [Example 231, (R,S)-1-[4-(3,4-dichlorophenyl)-1H-imidazol-2-yl]-1-heptanamine]
23 | 200 to 202 °C | CC(C)CCCC(N)c1nc(-c2cccc(Br)c2)c[nH]1 (racemic) (as salt: hydrochloride) [Example 233, (R,S)-1-[4-(3-bromophenyl)-1H-imidazol-2-yl]-5-methyl-1-hexanamine]
24 | 194 °C | CCCCCCC(NC1CCCCC1)c1nc(-c2ccc(Cl)c(Cl)c2)c[nH]1 (racemic) (as salt: hydrochloride) [Example 250, (R,S)-N-{1-[4-(3,4-dichlorophenyl)-1H-imidazol-2-yl]heptyl}-cyclohexanamine]
25 | 168 to 170 °C | CCCCCCC(NC1CCCCC1)c1nc(-c2ccc(-c3ccccc3)cc2)c[nH]1 (racemic) (as salt: hydrochloride) [Example 252, (R,S)-N-[1-(4-[1,1′-biphenyl]-4-yl-1H-imidazol-2-yl)heptyl]-cyclohexanamine]
26 | 220 to 222 °C | NC(Cc1c[nH]c2ccc(F)cc12)c1nc(-c2ccc(F)cc2)c[nH]1 (racemic) (as salt: hydrochloride) [Example 253, (R,S)-2-(5-fluoro-1H-indol-3-yl)-1-[4-(4-fluorophenyl)-1H-imidazol-2-yl]ethylamine]
27 | 180 to 190 °C | Fc1ccc(-c2c[nH]c(C(Cc3c[nH]c4ccc(F)cc34)NC3CCC3)n2)cc1 (racemic) (as salt: hydrochloride) [Example 256, (R,S)-N-{2-(5-fluoro-1H-indol-3-yl)-1-[4-(4-fluorophenyl)-1H-imidazol-2-yl]ethyl}cyclobutanamine]
28 | 230 to 232 °C | CC(C)CCC(NC1CCCCC1)c1nc(-c2ccc(F)cc2)c[nH]1 (racemic) (as salt: hydrochloride) [Example 257, (R,S)-N-{1-[4-(4-fluorophenyl)-1H-imidazol-2-yl]4-methylpentyl}-cyclohexanamine]
29 | 142 to 144 °C | CCCCCCC(NCC1CCCCC1)c1nc(-c2ccccc2)c[nH]1 (racemic) (as salt: hydrochloride) [Example 263, (R,S) N-(cyclohexylmethyl)-1-(4-phenyl-1H-imidazol-2-yl)-1-heptanamine]
30 | 216.7 °C | CC(C)CCCC(NC1CCCCC1)c1nc(-c2cccc(Br)c2)c[nH]1 (racemic) (as salt: hydrochloride) [Example 272, (R,S)-N-{1-[4-(3-bromophenyl)-1H-imidazol-2-yl]-5-methylhexyl}-cyclohexanamine]
31 | 192 to 194 °C | CCCCCC(NCc1ccccc1)c1nc(-c2ccccc2)c[nH]1 (racemic) [Example 202, (R,S)-N-benzyl-1-(4-phenyl-1H-imidazol-2-yl)-1-hexanamine]
32 | 141 to 142 °C | CCCCCCC(NCc1ccccc1)c1nc(-c2cccc(OC)c2)c[nH]1 (racemic) [Example 216, (R,S)-N-benzyl-1-[4-(3-methoxyphenyl)-1H-imidazol-2-yl]-1-heptanamine]
33 | 188 to 189 °C | CCCCCCC(NCc1ccccc1)c1nc(-c2ccc(C#N)cc2)c[nH]1 (racemic) [Example 217, (R,S)-4-{2-[1-(benzylamino)heptyl]-1H-imidazol-4-yl}benzonitrile]
34 | 94 to 98 °C | CCCCCCC(NCCC)c1nc(-c2ccccc2)c[nH]1 (racemic) [Example 224, (R,S)-N-[1-(4-phenyl-1H-imidazol-2-yl)heptyl]-N-propylamine]
35 | 126 to 128 °C | CCCCCCC(NCc1ccc(OC)cc1)c1nc(-c2ccccc2)c[nH]1 (racemic) [Example 227, (R,S)-N-(4-methoxybenzyl)-1-(4-phenyl-1H-imidazol-2-yl)-1-heptanamine]
36 | 92 to 94 °C | CC(C)CCCC(NCc1ccccc1)c1nc(-c2cccc(Br)c2)c[nH]1 (racemic) [Example 235, (R,S)-N-benzyl-1-[4-(3-bromophenyl)-1H-imidazol-2-yl]-5-methyl-1-hexanamine]
37 | 148 to 150 °C | CCCCCCC(NC1CCC1)c1nc(-c2ccccc2)c[nH]1 (racemic) [Example 240, (R,S)-N-[1-(4-phenyl-1H-imidazol-2-yl)heptyl]cyclobutanamine]
38 | 114 to 116 °C | CCCCCCC(NC(C)C)c1nc(-c2ccccc2)c[nH]1 (racemic) [Example 248, (R,S)-N-isopropyl-N-[1-(4-phenyl-1H-imidazol-2-yl)heptyl]amine]
39 | 146 to 148 °C | Fc1ccc(-c2c[nH]c(C(NC3CCC3)C3CCCC3)n2)cc1 (racemic) [Example 274, (R,S)-N-{cyclopentyl[4-(4-fluorophenyl)-1H-imidazol-2-yl]methyl}cyclobutanamine]
